The text below walks through data of BindingDB's records for doi:10.7270/Q2833QWM (D3R/Abbott, 2015).

For the experiment, the target named is T1, tRNA (guanine-N(1)-)-methyltransferase (Haemophilus influenzae (strain ATCC 51907 / DSM 11121 / KW20 / Rd), UniProt P43912).
T1 sequence (P43912 whole entry): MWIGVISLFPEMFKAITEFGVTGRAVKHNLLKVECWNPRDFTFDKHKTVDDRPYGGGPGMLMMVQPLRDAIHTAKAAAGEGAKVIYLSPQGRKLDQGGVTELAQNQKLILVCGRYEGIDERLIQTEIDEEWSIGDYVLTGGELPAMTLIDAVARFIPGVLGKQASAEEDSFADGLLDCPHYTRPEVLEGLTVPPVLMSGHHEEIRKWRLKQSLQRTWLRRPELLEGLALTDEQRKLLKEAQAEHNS
The experiment can be described thus: ScintillationProximity_Assay. The text has this: ScintillationProximity_Assay
For `CN(C)c1ccccc1CNc1ccc(C(N)=O)cn1` [GTC000455A], the midpoint of inhibition, the IC50, lay at 6.31 µM.
Turning to `CC(C)(C)c1cccc(C(=O)NCC2(NC(=O)c3cccc4nocc34)CCCCC2)c1` [GTC000449A], the IC50 stood at 0.00501 µM.
Then `NC(=O)c1ccc(NC2CCCC2)nc1` [GTC000457A], with 0.2 µM; and `NC(=O)c1ccc(NCC2CCCC2)nc1` [GTC000458A], with 0.501 µM; and `c1cc(-c2c[nH]cn2)ccn1`, with 158 µM.
Then `NC(=O)c1cnc(NC2CCCC2)nc1N` [GTC000464A], with 0.631 µM; and `NC(=O)c1ccc(NC2CCC(c3ccccc3)C2)nc1` (stereo unspecified) [GTC000467A], with 0.631 µM.
`Nc1nonc1C(=O)NCC1CCCCC1` [GTC000462A] displayed an IC50 of 2 µM. This IC50 is about 3.2-fold higher than that of the compound before.
Turning to `NC(=O)c1ccc(N[C@@H]2C[C@H](CO)[C@@H](O)C2)nc1` [GTC000468A], the IC50 amounted to 1.59 µM.
Then `NC(=O)c1ccc(NCc2ccccc2N2CCOCC2)nc1` [GTC000470A], with 2 µM; and `CC(C)(C)CNc1ncc(C(N)=O)c(N)n1` [GTC000474A], with 0.794 µM; and `NC(=O)c1ccc(NCc2ccccc2)nc1` [GTC000444A], with 3.16 µM.
Then `NC(=O)c1ccc(N)nc1` [GTC000445A], with 25.1 µM.
For `CN1CCN(c2ccccc2CNc2ccc(C(N)=O)cn2)CC1` [GTC000471A], the IC50 was determined as 0.794 µM.
The compound `Nc1nonc1C(=O)NC1CCNCC1` [GTC000465A] showed an IC50 of 20 µM.
For `CN(C)c1cccc(CNc2ccc(C(N)=O)cn2)c1` [GTC000453A], half-maximal inhibition (IC50) was put at 3.98 µM.
To `NC(=O)c1ccc(N[C@@H]2CC[C@@H](O)C2)nc1` [GTC000460A] belongs 0.2 µM; to `CN1CCN(C(=O)c2nonc2N)CC1` [GTC000472A], 100 µM.
Take `Nc1nonc1C(=O)N1CCN(Cc2ccccn2)CC1` [GTC000463A]: it took 15.8 µM to reach half-maximal inhibition (IC50). Against the preceding compound, the IC50 is about 6.3-fold lower.
As to `CC(C)(C)c1cccc(C(=O)NCC2(NC(=O)c3cccc4nocc34)CCCC2)c1` [GTC000450A], the IC50 was 0.00501 µM.
`Nc1nonc1C(=O)N[C@@H]1C[C@H]1c1ccc(S(N)(=O)=O)cc1` [GTC000466A] had an IC50 of 15.8 µM.
To `NC[C@H]1CCC[C@@H](CNc2ccc(C(N)=O)cn2)C1` [GTC000469A] belongs 0.501 µM.
Then `Nc1nonc1C(=O)NCc1ccc(Cl)cc1` [GTC000448A], with 39.8 µM; and `COc1ccccc1CNc1ccc(C(N)=O)cn1` [GTC000454A], with 0.794 µM.
With `NC(=O)c1ccc(NCc2cccc(O)c2)nc1` [GTC000452A], half-maximal inhibition (IC50) required 2 µM.
The compound `Cc1cccc(C(=O)NCC2(NC(=O)c3cccc4nocc34)CCCC2)c1` [GTC000451A] returned a half-inhibitory concentration (IC50) of 0.158 µM.
To `Cc1cccc(C(=O)NCCC2(CNc3ccc(C(N)=O)cn3)CCCCC2)c1` [GTC000461A] belongs 7.94 µM; to `COc1ccc(C(=O)n2ncnc2N)cc1` [GTC000473A], 2.51 µM.
To `Nc1nonc1C(=O)N[C@@H]1CC[C@H](O)C1` [GTC000456A] belongs 7.94 µM; to `NC(=O)c1ccc(NCc2ccccc2O)nc1` [GTC000459A], 1.26 µM; to `c1cc(-c2ncc[nH]2)ccn1` [GTC000447A], 316 µM.
